# Laboratory results: patent US10952999B2, “Inhibitor of cyclin-dependent kinase CDK9” (GENFLEET THERAPEUTICS (SHANGHAI) INC., priority 2017, dated 2021)
# Tests used:
# [1] = Body weight of mice in the MV4-11 mouse model; type: in vivo; details: orally per day, Bal b/c mice
# Procedure: 24 Bal b/c female mice, 4-6 weeks, were purchased from Shanghai Slack Laboratory Animals Co., Ltd. and kept in SPF laboratory. The drinking water and padding were aseptically treated by autoclaving. All operations were carried out under aseptic conditions. On day 0, 5×10^6MV4-11 acute granulocyte leukemia cells (purchased from ATCC) were subcutaneously injected into the left side of all mice' back. Starting on day 15, all mice were divided into four groups (6 mice per group), methyl cellulose (HKI) solvent was orally administered to the first group of mice per day; compound 1 at a dose of 10 mg/kg mice body weight was orally administered to the second group of mice per day; compound 1 at a dose of 20 mg/kg mice body weight was orally administered to the third group of mice per day; compound 1 at a dose of 30 mg/kg mice body weight was orally administered to the fourth group of mice per day. From the start of administration, the length/width of the subcutaneous tumor was measured with a vernier caliper every day, and the body weight of the mouse was recorded every day, and the effect of compound 1 on the body weight of the mouse was observed. […] The trend of subcutaneous tumor growth was counted within day 16 to day 43, and the tumor volume was calculated as: length×width×width/2 mm^3.
# [2] = tested on: acute myelocytic leukemia cell line (AML) HL-60; experiment: Effect on cell cycle distribution, PI staining, flow cytometry; type: cell-based; details: HL-60, 0.01-0.1 μM, 12, 24 or 48 hours
# Procedure: (§1) In order to study in which cycle the cells were prevented after administration, in the three cell lines, acute promyelocytic leukemia cell line NB-4, acute myelocytic leukemia cell line (AML) HL-60, and acute myelocytic leukemia cell line (AML) MV4-11, the effects of compound 1 on the cell cycle distribution of these cell lines were tested. […] The cell cycle distribution was measured by flow cytometry (BD FACS Calibur).
# [3] = tested on: acute promyelocytic leukemia cell line NB-4; experiment: as above; type: cell-based; details: NB-4, 0.01-0.1 μM, 12, 24 or 48 hours
# Procedure: as §1
# [4] = tested on: acute myelocytic leukemia cell line (AML) MV4-11; experiment: as above; type: cell-based; details: MV4-11, 0.01-0.1 μM, 12, 24 or 48 hours
# Procedure: as §1
# [5] = molecular target: T1, CDK11(non-active) (Homo sapiens, UniProt Q9BWU1); experiment: Enzyme assay for inhibition of CDK protein in vitro (Z-LYTE); type: biochemical
# T1 construct: purchased Invitrogen, USA
# Procedure: (§2) Compounds 1 and 14 diluted in DMSO were mixed with detected CDK protein (Invitrogen, USA) respectively, incubated at room temperature for 30 minutes; and then mixed with Kinase/Z-LYTE™ Peptide Substrate Mixture (Invitrogen, USA) and 4×ATP. The mixed system was transferred to a 384-well white opaque plate to react for 1 hour at room temperature; 5 μL of Development Solution (Invitrogen, USA) was added to react at room temperature for 1 hour, and finally Stop Reagent (Invitrogen, USA) was added to terminate the reaction and MD SpectraMax I3× microplate reader (Molecular Devices, USA) was used to read fluorescence values.
# [6] = molecular target: T2, CDK2/cyclin A (Homo sapiens, UniProt P24941); experiment: as above; type: biochemical
# T2 construct: purchased Invitrogen, USA
# Procedure: as §2
# [7] = molecular target: T3, CDK9/cyclin T1 (Homo sapiens, UniProt P50750); experiment: as above; type: biochemical
# T3 construct: purchased Invitrogen, USA
# Procedure: as §2
# [8] = molecular target: T4, CDK14/cyclin Y (Homo sapiens, UniProt O94921); experiment: as above; type: biochemical
# T4 construct: purchased Invitrogen, USA
# Procedure: as §2
# [9] = molecular target: T5, CDK16/cyclin Y (Homo sapiens, UniProt Q00536); experiment: as above; type: biochemical
# T5 construct: purchased Invitrogen, USA
# Procedure: as §2
# [10] = molecular target: T6, CDK8/cyclin C (Homo sapiens, UniProt P49336); experiment: as above; type: biochemical
# T6 construct: purchased Invitrogen, USA
# Procedure: as §2
# [11] = molecular target: T7, CDK1/cyclin B (Homo sapiens, UniProt P06493); experiment: as above; type: biochemical
# T7 construct: purchased Invitrogen, USA
# Procedure: as §2
# [12] = molecular target: T8, CDK3/cyclin E1 (Homo sapiens, UniProt Q00526); experiment: as above; type: biochemical
# T8 construct: purchased Invitrogen, USA
# Procedure: as §2
# [13] = molecular target: T9, CDK5/p25 (Homo sapiens, UniProt Q00535); experiment: as above; type: biochemical
# T9 construct: purchased Invitrogen, USA
# Procedure: as §2
# [14] = molecular target: T10, CDK7/cyclin HMNAT1 (Homo sapiens, UniProt P50613); experiment: as above; type: biochemical
# T10 construct: purchased Invitrogen, USA
# Procedure: as §2
# [15] = tested on: human leukemia cell Nomo-1; experiment: Cancer cell growth, Cell Titer-Glo cell viability assay, 72 hours; type: cell-based; details: Homo sapiens; Nomo-1, 72 hours
# Summary of the method: (§3)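 Viable cell number was determined by quantifying cellular ATP with a CellTiter-Glo luminescence kit. GI50 and IC50 values were calculated from these ATP-based viability readings.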
# [16] = tested on: acute megakaryoblastic leukemia CMK; experiment: as above; type: cell-based
# Summary of the method: as §3
# [17] = tested on: human non-small cell lung cancer cell PC-9; experiment: as above; type: cell-based; details: PC-9, 72 hours
# Summary of the method: as §3
# [18] = tested on: acute B cell leukemia cell line MEC-1; experiment: as above; type: cell-based; details: Homo sapiens, MEC1; MEC-1, 72 hours
# Summary of the method: as §3
# [19] = tested on: human non-small cell lung cancer cell H1915; experiment: as above; type: cell-based; details: NCI-H1915, H1915, 72 hours
# Summary of the method: as §3
# [20] = tested on: MV4-11 acute granulocyte leukemia cells; experiment: Human acute granulocyte leukemia MV4-11 mouse model, subcutaneous tumor; type: in vivo, mice
# Procedure: 24 Bal b/c female mice, 4-6 weeks, were purchased from Shanghai Slack Laboratory Animals Co., Ltd. and kept in SPF laboratory. The drinking water and padding were aseptically treated by autoclaving. All operations were carried out under aseptic conditions. On day 0, 5×10^6MV4-11 acute granulocyte leukemia cells (purchased from ATCC) were subcutaneously injected into the left side of all mice' back. Starting on day 15, all mice were divided into four groups (6 mice per group), methyl cellulose (HKI) solvent was orally administered to the first group of mice per day; compound 1 at a dose of 10 mg/kg mice body weight was orally administered to the second group of mice per day; compound 1 at a dose of 20 mg/kg mice body weight was orally administered to the third group of mice per day; compound 1 at a dose of 30 mg/kg mice body weight was orally administered to the fourth group of mice per day. From the start of administration, the length/width of the subcutaneous tumor was measured with a vernier caliper every day, and the body weight of the mouse was recorded every day, and the effect of compound 1 on the body weight of the mouse was observed. On day 43, the mice were sacrificed, subcutaneous tumors were taken out, and tumors were weighed and compared, and then a sample of protein lysate was prepared from the tumor sample tissue for use. The trend of subcutaneous tumor growth was counted within day 16 to day 43, and the tumor volume was calculated as: length×width×width/2 mm^3.
# T10 sequence (P50613 whole entry): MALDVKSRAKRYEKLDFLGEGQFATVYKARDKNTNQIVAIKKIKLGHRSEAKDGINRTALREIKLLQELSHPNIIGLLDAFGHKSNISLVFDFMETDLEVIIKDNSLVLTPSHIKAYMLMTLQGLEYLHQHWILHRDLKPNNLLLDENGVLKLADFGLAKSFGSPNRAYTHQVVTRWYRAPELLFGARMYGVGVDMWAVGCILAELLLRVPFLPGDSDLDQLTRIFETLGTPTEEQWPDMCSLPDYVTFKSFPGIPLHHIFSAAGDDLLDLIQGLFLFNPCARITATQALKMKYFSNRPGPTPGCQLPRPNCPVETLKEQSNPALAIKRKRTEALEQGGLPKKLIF
# T10 sequence (P51946 whole entry partner): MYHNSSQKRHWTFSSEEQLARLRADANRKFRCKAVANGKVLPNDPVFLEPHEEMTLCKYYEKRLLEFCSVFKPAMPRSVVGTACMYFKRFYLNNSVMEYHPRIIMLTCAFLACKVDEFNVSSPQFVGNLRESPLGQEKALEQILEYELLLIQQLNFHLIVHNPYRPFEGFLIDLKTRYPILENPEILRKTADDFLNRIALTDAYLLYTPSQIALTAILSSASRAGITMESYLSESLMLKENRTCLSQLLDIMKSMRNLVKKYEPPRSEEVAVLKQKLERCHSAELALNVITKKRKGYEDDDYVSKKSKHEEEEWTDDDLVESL
# T10 sequence (P51948 whole entry partner): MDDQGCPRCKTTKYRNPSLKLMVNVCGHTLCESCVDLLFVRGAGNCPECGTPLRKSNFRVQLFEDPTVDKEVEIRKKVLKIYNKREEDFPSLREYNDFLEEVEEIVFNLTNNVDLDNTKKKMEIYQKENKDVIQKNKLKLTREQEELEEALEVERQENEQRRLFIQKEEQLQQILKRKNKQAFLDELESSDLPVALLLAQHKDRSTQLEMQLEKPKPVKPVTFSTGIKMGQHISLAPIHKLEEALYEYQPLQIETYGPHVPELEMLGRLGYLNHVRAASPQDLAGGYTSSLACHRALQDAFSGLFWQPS
# T3 sequence (P50750 whole entry): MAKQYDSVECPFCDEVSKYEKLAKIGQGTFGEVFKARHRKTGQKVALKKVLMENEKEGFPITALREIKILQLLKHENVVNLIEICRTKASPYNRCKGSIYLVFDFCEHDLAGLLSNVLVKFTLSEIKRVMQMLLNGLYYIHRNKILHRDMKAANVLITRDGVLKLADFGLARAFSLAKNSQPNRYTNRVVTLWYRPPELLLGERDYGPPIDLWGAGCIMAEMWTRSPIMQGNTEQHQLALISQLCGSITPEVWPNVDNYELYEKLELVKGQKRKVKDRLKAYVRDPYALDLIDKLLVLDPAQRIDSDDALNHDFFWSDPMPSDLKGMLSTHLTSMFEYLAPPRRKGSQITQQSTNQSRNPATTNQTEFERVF
# T3 sequence (O60563 whole entry partner): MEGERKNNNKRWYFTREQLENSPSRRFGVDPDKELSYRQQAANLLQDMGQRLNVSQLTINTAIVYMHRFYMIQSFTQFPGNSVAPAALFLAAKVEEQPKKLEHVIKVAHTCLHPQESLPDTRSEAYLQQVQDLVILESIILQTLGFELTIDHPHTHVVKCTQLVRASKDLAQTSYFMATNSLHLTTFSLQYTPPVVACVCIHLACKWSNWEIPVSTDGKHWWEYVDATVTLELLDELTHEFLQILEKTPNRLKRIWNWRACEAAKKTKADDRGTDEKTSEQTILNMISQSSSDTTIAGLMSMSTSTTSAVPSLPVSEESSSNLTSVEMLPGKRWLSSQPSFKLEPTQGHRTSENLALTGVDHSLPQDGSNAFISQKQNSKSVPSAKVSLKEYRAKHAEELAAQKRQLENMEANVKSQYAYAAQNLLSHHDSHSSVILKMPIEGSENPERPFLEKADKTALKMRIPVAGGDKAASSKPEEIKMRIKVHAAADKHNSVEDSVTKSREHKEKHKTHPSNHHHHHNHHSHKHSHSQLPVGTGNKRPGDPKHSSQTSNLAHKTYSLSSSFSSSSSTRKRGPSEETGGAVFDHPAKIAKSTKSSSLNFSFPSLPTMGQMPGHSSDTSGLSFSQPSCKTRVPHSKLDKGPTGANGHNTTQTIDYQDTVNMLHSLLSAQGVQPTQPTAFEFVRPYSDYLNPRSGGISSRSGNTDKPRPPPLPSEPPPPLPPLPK
# T4 sequence (O94921 whole entry): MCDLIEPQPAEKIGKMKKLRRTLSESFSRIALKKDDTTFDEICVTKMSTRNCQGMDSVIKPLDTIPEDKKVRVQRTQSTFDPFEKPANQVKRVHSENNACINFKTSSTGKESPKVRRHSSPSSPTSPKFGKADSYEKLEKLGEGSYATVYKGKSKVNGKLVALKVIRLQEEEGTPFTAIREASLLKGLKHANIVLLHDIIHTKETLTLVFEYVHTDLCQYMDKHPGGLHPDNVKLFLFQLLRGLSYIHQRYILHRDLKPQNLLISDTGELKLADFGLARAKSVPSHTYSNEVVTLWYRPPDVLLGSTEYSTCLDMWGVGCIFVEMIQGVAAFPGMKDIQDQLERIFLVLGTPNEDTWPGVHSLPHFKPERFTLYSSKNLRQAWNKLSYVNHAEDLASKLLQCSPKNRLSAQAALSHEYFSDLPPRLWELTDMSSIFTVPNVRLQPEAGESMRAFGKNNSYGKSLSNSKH
# T4 sequence (Q8ND76 whole entry partner): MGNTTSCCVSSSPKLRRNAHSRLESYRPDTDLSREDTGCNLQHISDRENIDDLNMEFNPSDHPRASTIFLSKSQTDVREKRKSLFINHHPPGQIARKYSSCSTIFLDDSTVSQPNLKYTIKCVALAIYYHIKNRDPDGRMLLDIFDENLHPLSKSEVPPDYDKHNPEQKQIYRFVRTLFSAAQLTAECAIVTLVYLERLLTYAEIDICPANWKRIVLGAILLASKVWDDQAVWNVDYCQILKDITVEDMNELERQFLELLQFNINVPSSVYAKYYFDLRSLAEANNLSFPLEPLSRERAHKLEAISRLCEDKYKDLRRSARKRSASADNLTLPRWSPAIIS
# T1 sequence (Q9BWU1 whole entry): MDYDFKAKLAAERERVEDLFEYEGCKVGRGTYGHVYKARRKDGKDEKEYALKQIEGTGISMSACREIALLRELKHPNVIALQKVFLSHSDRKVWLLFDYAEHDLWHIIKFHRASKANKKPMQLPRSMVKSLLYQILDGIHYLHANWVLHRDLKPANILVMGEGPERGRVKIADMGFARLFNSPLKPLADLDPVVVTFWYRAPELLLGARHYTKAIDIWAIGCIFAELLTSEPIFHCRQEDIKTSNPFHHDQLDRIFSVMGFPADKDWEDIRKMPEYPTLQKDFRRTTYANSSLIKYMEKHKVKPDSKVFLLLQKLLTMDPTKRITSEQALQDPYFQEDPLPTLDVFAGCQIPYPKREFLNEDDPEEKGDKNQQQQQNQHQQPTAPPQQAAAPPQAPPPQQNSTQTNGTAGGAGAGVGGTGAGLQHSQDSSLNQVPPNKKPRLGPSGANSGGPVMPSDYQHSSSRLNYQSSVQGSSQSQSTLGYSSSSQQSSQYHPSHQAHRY
# T9 sequence (Q00535 whole entry): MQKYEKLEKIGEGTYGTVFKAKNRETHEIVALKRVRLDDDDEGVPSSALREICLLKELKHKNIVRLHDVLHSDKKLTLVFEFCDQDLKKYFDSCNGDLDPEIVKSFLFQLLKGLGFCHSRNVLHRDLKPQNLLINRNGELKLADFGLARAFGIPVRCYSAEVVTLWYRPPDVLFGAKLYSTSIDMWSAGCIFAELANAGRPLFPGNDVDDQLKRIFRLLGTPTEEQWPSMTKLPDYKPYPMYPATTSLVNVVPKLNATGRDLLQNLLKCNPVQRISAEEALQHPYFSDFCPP
# T9 sequence (Q15078 99-307 partner limits assumed): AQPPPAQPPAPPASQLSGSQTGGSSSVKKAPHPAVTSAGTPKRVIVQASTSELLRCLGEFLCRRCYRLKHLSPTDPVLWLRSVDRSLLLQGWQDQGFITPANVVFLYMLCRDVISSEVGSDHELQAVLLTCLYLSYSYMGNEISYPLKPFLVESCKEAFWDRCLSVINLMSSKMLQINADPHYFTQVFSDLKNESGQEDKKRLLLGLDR
# T5 sequence (Q00536 whole entry): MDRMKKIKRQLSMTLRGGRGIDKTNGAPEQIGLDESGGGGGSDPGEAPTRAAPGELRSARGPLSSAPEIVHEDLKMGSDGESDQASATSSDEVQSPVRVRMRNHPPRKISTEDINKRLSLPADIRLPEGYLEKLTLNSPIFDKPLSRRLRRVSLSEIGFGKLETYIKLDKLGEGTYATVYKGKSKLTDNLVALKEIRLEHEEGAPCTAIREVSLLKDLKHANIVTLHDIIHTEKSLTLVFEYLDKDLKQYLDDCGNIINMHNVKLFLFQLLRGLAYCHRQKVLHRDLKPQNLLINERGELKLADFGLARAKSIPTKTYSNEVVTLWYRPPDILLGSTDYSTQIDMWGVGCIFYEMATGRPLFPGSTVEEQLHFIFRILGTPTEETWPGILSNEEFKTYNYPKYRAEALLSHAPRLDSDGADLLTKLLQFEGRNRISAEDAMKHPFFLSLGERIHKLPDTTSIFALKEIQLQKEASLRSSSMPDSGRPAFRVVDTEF
# T5 sequence (Q8ND76 whole entry partner): as the sequence (Q8ND76 whole entry partner) above
smiles,measurement,setting,value
"COC[C@@H](C)N[C@H]1CC[C@H](Nc2cc(-c3csc(NCC4(C#N)CCOCC4)n3)c(Cl)cn2)CC1 [Compound 1, 4-(((4-(5-chloro-2-(((1R,4r)-4-(((R)-1-methoxypropyl-2-yl)amino)cyclohexyl)amino)pyridin-4-yl)thiazol-2-yl)amino)methyl)tetrahydro-2H-pyran-4-carbonitrile]",effect on the body weight of mice,"[1]; high dose group (20, 30 mg/kg)",affected the body weight
same,effect on the body weight of mice,[1]; low dose group (10 mg/kg),no significant effect
same,effect on the cell cycle,[2],blocked the cells in G0-G1 phase
same,effect on the cell cycle,[3],blocked the cells in G0-G1 phase
same,effect on the cell cycle,[4],blocked the cells in G0-G1 phase
same,IC50,[5],> 10000 nM
same,IC50,[6],6850 nM
same,IC50,[7],0.928 nM
same,IC50,[8],2710 nM
same,IC50,[9],195 nM
same,IC50,[10],> 10000 nM
same,IC50,[11],5410 nM
same,IC50,[12],> 10000 nM
same,IC50,[13],6950 nM
same,IC50,[14],3700 nM
same,GI50,[15],45 nM
same,GI50,[16],49 nM
same,IC50,[17],90 nM
same,GI50,[18],47 nM
same,IC50,[19],37 nM
same,growth of subcutaneous tumors (in words),"[20]; 10, 20, 30 mg/kg orally per day, Bal b/c mice",effective in inhibiting the growth of subcutaneous tumors
same,tumor growth inhibition (TGI),"[20]; high dose group (20, 30 mg/kg), orally per day, day 15 to day 43, Bal b/c mice",98.7%
same,weight of the subcutaneous tumor,"[20]; low dose group (10 mg/kg), orally per day, Bal b/c mice",significantly reduced
